Results: patent US11365188B2, “JAK inhibitors” (priority 2018, dated 2022)

What was measured:
Type in all cases: biochemical
JAK2 = JAK2 (Homo sapiens, UniProt O60674); assay: JAK2 Assay (Caliper EZ Reader, fluoresceinated peptide); settings: ATP 11.4 μM; JAK2 0.25 nM; 15 minutes at room temperature; read-out: JAK2 inhibition
JAK3 = biological target: T1, JAK3 (Homo sapiens, UniProt P52333); assay: JAK3 Assay (Caliper EZ Reader, fluoresceinated peptide); settings: ATP 3.5 μM; JAK3 0.5 nM; 30 minutes at room temperature; read-out: JAK3 inhibition
T1 sequence (P52333 1-1124): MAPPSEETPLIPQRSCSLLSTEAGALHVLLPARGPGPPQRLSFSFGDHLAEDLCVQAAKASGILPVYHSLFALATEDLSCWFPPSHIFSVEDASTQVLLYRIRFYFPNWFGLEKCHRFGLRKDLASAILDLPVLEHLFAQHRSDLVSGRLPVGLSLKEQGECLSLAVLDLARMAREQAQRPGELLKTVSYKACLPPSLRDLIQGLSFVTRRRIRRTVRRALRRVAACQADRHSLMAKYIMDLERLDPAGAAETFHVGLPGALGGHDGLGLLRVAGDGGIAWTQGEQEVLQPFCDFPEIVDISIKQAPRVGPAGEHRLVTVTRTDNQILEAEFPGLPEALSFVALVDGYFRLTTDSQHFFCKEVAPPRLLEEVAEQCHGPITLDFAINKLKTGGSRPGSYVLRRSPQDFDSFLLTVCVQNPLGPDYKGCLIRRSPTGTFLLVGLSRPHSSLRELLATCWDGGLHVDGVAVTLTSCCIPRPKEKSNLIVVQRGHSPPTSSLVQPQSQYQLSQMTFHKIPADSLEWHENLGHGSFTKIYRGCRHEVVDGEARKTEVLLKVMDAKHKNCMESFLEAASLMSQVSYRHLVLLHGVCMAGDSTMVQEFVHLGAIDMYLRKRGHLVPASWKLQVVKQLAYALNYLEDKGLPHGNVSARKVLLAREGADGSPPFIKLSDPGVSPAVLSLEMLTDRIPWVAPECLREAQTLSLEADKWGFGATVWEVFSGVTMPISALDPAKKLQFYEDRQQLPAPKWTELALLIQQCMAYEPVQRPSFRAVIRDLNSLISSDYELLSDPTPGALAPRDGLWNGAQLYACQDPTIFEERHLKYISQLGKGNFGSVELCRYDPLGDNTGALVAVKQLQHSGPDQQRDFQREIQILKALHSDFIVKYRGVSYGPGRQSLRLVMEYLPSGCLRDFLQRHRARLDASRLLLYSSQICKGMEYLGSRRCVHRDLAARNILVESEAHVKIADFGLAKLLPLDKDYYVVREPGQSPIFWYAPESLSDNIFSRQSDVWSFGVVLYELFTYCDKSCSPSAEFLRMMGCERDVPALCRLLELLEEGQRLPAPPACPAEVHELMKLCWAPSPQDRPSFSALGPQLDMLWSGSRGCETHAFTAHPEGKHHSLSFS

JAK1 = JAK1 (Homo sapiens, UniProt P23458); assay: JAK Kinase Assay (JAK1, Caliper EZ Reader, fluoresceinated peptide); settings: ATP 76.5 μM; JAK1 10 nM; 120 minutes at room temperature; read-out: JAK1 inhibition
JAK1, sequence (P23458 whole entry, species assumed): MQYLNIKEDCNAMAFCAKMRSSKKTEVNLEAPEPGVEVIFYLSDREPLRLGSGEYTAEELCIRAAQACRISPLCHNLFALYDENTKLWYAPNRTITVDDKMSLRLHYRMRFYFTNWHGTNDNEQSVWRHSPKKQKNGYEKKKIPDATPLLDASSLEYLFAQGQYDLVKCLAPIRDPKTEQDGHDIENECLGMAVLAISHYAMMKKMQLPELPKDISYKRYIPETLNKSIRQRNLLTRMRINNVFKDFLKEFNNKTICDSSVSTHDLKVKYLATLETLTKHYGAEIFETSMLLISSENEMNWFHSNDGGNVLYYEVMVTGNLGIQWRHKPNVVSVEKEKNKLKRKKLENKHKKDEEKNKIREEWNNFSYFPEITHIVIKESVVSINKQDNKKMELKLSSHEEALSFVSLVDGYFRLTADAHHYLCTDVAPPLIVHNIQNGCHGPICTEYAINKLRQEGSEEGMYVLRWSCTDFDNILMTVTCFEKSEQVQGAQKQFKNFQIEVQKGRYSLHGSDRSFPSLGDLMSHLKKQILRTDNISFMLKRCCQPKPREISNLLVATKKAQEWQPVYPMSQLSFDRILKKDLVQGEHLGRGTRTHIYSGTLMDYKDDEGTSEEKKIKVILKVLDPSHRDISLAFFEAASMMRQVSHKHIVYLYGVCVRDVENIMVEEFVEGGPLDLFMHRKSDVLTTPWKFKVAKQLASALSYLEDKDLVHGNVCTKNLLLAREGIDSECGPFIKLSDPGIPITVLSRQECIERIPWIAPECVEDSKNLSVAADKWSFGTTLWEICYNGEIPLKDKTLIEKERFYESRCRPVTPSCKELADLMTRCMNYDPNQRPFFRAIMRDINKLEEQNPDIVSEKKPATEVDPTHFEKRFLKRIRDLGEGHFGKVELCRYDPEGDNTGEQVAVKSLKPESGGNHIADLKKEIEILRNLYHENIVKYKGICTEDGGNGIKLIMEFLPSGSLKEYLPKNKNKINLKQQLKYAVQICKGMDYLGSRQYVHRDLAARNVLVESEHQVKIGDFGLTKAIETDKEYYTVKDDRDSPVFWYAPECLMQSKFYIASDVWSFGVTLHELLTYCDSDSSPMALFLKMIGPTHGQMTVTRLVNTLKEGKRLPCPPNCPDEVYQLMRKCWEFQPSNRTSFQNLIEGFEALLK

JAK2, sequence (O60674 whole entry, species assumed): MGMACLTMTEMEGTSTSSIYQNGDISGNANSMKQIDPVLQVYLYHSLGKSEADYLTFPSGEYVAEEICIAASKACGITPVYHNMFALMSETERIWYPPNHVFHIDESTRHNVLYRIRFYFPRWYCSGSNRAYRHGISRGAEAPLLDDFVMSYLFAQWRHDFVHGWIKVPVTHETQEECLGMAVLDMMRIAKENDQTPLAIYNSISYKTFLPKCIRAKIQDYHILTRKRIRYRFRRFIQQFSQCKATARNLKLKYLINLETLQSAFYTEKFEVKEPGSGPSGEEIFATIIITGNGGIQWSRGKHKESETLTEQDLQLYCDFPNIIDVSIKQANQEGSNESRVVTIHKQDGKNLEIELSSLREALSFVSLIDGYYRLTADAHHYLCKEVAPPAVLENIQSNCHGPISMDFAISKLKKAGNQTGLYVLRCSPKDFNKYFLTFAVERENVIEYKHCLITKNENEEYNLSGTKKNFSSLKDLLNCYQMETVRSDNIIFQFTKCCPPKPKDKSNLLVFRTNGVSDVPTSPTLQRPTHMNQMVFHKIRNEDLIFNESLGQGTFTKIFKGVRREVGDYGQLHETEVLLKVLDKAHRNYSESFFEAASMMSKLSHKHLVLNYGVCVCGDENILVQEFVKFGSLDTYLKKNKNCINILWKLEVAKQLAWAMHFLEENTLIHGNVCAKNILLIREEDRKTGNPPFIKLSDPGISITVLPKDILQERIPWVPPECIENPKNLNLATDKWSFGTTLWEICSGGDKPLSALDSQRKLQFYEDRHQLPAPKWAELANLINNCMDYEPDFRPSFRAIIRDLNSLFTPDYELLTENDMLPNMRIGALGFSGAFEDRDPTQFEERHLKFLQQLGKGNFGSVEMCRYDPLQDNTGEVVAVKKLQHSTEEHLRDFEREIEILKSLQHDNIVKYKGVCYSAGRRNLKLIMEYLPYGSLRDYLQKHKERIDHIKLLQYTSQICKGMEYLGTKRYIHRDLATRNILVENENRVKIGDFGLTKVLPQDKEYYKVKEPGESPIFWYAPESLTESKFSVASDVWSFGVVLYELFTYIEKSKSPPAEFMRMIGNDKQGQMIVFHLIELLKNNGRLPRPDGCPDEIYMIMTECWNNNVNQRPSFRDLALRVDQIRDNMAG

SMILES | IC50 (JAK2) [nM] | IC50 (JAK3) [nM] | IC50 (JAK1) [nM]
CCS(=O)(=O)N1CCC2(CCC(N(C)c3ncnc4[nH]ccc34)CC2)CC1 [Compound 76, (3-Ethanesulfonyl-3-aza-spiro[5.5]undec-9-yl)-methyl-(7H-pyrrolo[2,3-d]pyrimidin-4-yl)-amine] | 100 to 1000 | 1000 to 10000 | 100 to 1000
CN(c1ncnc2[nH]ccc12)C1CCC2(CC1)CCN(C(=O)CO)CC2 [Compound 77, 2-Hydroxy-1-{9-[methyl-(7H-pyrrolo[2,3-d]pyrimidin-4-yl)-amino]-3-aza-spiro[5.5]undec-3-yl}-ethanone] | 10 to 100 | 100 to 1000 | 10 to 100
CCC(=O)N1CCC2(CCC(N(C)c3ncnc4[nH]ccc34)CC2)CC1 [Compound 78, 1-{9-[Methyl-(7H-pyrrolo[2,3-d]pyrimidin-4-yl)-amino]-3-aza-spiro[5.5]undec-3-yl}-propan-1-one] | 100 to 1000 | 1000 to 10000 | 100 to 1000
CN(c1ncnc2[nH]ccc12)C1CCC2(CC1)CCN(C(=O)C1CCC(=O)CC1)CC2 [Compound 82, 4-{9-[Methyl-(7H-pyrrolo[2,3-d]pyrimidin-4-yl)-amino]-3-aza-spiro[5.5]undecane-3-carbonyl}-cyclohexanone] | 1000 to 10000 | 1000 to 10000 | 100 to 1000
CN(c1ncnc2[nH]ccc12)C1CCC2(CC1)CCN(C(=O)c1cccc(C(F)(F)F)c1)CC2 [Compound 83, {9-[Methyl-(7H-pyrrolo[2,3-d]pyrimidin-4-yl)-amino]-3-aza-spiro[5.5]undec-3-yl}-(3-trifluoromethyl-phenyl)-methanone] | 100 to 1000 | 1000 to 10000 | 100 to 1000
CN(c1ncnc2[nH]ccc12)C1CCC2(CC1)CCN(C(=O)c1ccc(C#N)cc1F)CC2 [Compound 84, 3-Fluoro-4-{9-[methyl-(7H-pyrrolo[2,3-d]pyrimidin-4-yl)-amino]-3-aza-spiro[5.5]undecane-3-carbonyl}-benzonitrile] | 100 to 1000 | 1000 to 10000 | 100 to 1000
CN(c1ncnc2[nH]ccc12)C1CCC2(CC1)CCN(C(=O)Cc1ccc(C#N)cc1)CC2 [Compound 85, 4-(2-{9-[Methyl-(7H-pyrrolo[2,3-d]pyrimidin-4-yl)-amino]-3-aza-spiro[5.5]undec-3-yl}-2-oxo-ethyl)-benzonitrile] | 100 to 1000 | 100 to 1000 | 10 to 100
CN(c1ncnc2[nH]ccc12)C1CCC2(CC1)CCN(C(=O)CCS(C)(=O)=O)CC2 [Compound 86, 3-Methanesulfonyl-1-{9-[methyl-(7H-pyrrolo[2,3-d]pyrimidin-4-yl)-amino]-3-aza-spiro[5.5]undec-3-yl}-propan-1-one] | 100 to 1000 | 1000 to 10000 | 100 to 1000
CN(c1ncnc2[nH]ccc12)C1CCC2(CC1)CCN(C(=O)c1ccc(C#N)c(F)c1)CC2 [Compound 87, 2-Fluoro-4-{9-[methyl-(7H-pyrrolo[2,3-d]pyrimidin-4-yl)-amino]-3-aza-spiro[5.5]undecane-3-carbonyl}-benzonitrile] | 100 to 1000 | 100 to 1000 | 100 to 1000
CN(c1ncnc2[nH]ccc12)C1CCC2(CC1)CCN(C(=O)c1cnccn1)CC2 [Compound 88, {9-[Methyl-(7H-pyrrolo[2,3-d]pyrimidin-4-yl)-amino]-3-aza-spiro[5.5]undec-3-yl}-pyrazin-2-yl-methanone] | 100 to 1000 | 1000 to 10000 | 100 to 1000
CN(c1ncnc2[nH]ccc12)C1CCC2(CC1)CCN(C(=O)C1(C#N)CC1)CC2 [Compound 89, 1-{9-[Methyl-(7H-pyrrolo[2,3-d]pyrimidin-4-yl)-amino]-3-aza-spiro[5.5]undecane-3-carbonyl}-cyclopropanecarbonitrile] | 100 to 1000 | 1000 to 10000 | 100 to 1000
Cc1cncc(C(=O)N2CCC3(CCC(N(C)c4ncnc5[nH]ccc45)CC3)CC2)n1 [Compound 90, (6-Methyl-pyrazin-2-yl)-{9-[methyl-(7H-pyrrolo[2,3-d]pyrimidin-4-yl)-amino]-3-aza-spiro[5.5]undec-3-yl}-methanone] | 100 to 1000 | 1000 to 10000 | 100 to 1000
CN(c1ncnc2[nH]ccc12)C1CCC2(CC1)CCN(C(=O)CCC(F)(F)F)CC2 [Compound 91, 4,4,4-Trifluoro-1-{9-[methyl-(7H-pyrrolo[2,3-d]pyrimidin-4-yl)-amino]-3-aza-spiro[5.5]undec-3-yl}-butan-1-one] | 100 to 1000 | 1000 to 10000 | 100 to 1000
CN(c1ncnc2[nH]ccc12)C1CCC2(CC1)CCN(C(=O)c1csc3ccccc13)CC2 [Compound 92, Benzo[b]thiophen-3-yl-{9-[methyl-(7H-pyrrolo[2,3-d]pyrimidin-4-yl)-amino]-3-aza-spiro[5.5]undec-3-yl}-methanone] | 100 to 1000 | 100 to 1000 | 100 to 1000
CN(c1ncnc2[nH]ccc12)C1CCC2(CC1)CCN(C(=O)Cc1c[nH]c3ccccc13)CC2 [Compound 93, 2-(1H-Indol-3-yl)-1-{9-[methyl-(7H-pyrrolo[2,3-d]pyrimidin-4-yl)-amino]-3-aza-spiro[5.5]undec-3-yl}-ethanone] | 100 to 1000 | 100 to 1000 | 100 to 1000
Cc1ccsc1C(=O)N1CCC2(CCC(N(C)c3ncnc4[nH]ccc34)CC2)CC1 [Compound 94, {9-[Methyl-(7H-pyrrolo[2,3-d]pyrimidin-4-yl)-amino]-3-aza-spiro[5.5]undec-3-yl}-(3-methyl-thiophen-2-yl)-methanone] | 100 to 1000 | 1000 to 10000 | 100 to 1000

Results, then the compound that gave them:

IC50 (JAK2) [nM] | IC50 (JAK3) [nM] | IC50 (JAK1) [nM] | SMILES
1000 to 10000 | 1000 to 10000 | 100 to 1000 | CN(c1ncnc2[nH]ccc12)C1CC2(C1)CN(C(=O)c1ccc(-c3ccn(C)n3)cc1)C2 [Compound 68]
1000 to 10000 | ≥ 10000 | 100 to 1000 | CN(c1ncnc2[nH]ccc12)C1CC2(C1)CN(C(=O)c1cnn(C3CC3)c1)C2 [Compound 69, (1-Cyclopropyl-1H-pyrazol-4-yl)-{6-[methyl-(7H-pyrrolo[2,3-d]pyrimidin-4-yl)-amino]-2-aza-spiro[3.3]hept-2-yl}-methanone]
100 to 1000 | 100 to 1000 | ≤ 10 | COC(=O)N1CCC2(CCC(N(C)c3ncnc4[nH]ccc34)CC2)CC1 [Compound 73, Methyl 9-(methyl(7H-pyrrolo[2,3-d]pyrimidin-4-yl)amino)-3-azaspiro[5.5]undecane-3-carboxylate]
10 to 100 | 100 to 1000 | 10 to 100 | CC(=O)N1CCC2(CCC(N(C)c3ncnc4[nH]ccc34)CC2)CC1 [Compound 75, 1-{9-[Methyl-(7H-pyrrolo[2,3-d]pyrimidin-4-yl)-amino]-3-aza-spiro[5.5]undec-3-yl}-ethanone]
100 to 1000 | 100 to 1000 | 100 to 1000 | CN(c1ncnc2[nH]ccc12)C1CCC2(CC1)CCN(CC(F)(F)F)CC2 [Compound 79, Methyl-(7H-pyrrolo[2,3-d]pyrimidin-4-yl)-[3-(2,2,2-trifluoro-ethyl)-3-aza-spiro[5.5]undec-9-yl]-amine]
100 to 1000 | 100 to 1000 | 100 to 1000 | CN(c1ncnc2[nH]ccc12)C1CCC2(CC1)CCN(C(=O)c1cccnc1)CC2 [Compound 80, {9-[Methyl-(7H-pyrrolo[2,3-d]pyrimidin-4-yl)-amino]-3-aza-spiro[5.5]undec-3-yl}-pyridin-3-yl-methanone]
100 to 1000 | 100 to 1000 | 100 to 1000 | CN(c1ncnc2[nH]ccc12)C1CCC2(CC1)CCN(C(=O)CCC#N)CC2 [Compound 81, 4-{9-[Methyl-(7H-pyrrolo[2,3-d]pyrimidin-4-yl)-amino]-3-aza-spiro[5.5]undec-3-yl}-4-oxo-butyronitrile]
100 to 1000 | 100 to 1000 | 100 to 1000 | CN(c1ncnc2[nH]ccc12)C1CCC2(CC1)CCN(C(=O)c1cc3ccccc3[nH]1)CC2 [Compound 95, (1H-Indol-2-yl)-{9-[methyl-(7H-pyrrolo[2,3-d]pyrimidin-4-yl)-amino]-3-aza-spiro[5.5]undec-3-yl}-methanone]
